Data reported in patent publication US9328057B2, “Chiral arylketones in the treatment of neutrophil-dependent inflammatory diseases” (DOMPE' FARMACEUTICI S.P.A., priority 2002, dated 2016).

System: chemiotaxis of human PMN leucocytes (PMNs) stimulated by interleukin 8
Assay: chemiotaxis of human PMNs stimulated by IL-8 (48-well microchamber)
Format: cell-based
Details: Leucocyte, 10 min, IL-8 10 ng/mL, 10 minutes incubation at 37° C., read-out: IC50 (dose inhibiting 50% of the effect), chemiotaxis induced by IL-8 (converted)
Protocol: For evaluation of the compounds of the invention, polymorphonucleated blood cells were used obtained from heparinized blood of healthy adult volunteers by means of sedimentation on dextran. The mononucleated cells were removed by means of Ficoll/Hypaque, whilst the red blood cells were eliminated by treatment with hypotonic solutions. The cell vitality of the polymorphonucleated leucocytes (PMNs) was calculated by means of exclusion with Turk and Trypan Blue whilst after staining with Diff Quinck the percentage of the PM-nucleates on the cytocentrifugate was estimated (for details of the experimental techniques used see W. J. Ming et al., J. Immunol., 138, 1469, 1987). In each of the in vitro experiments, time periods of 10 minutes were used for the incubation of the PMNs with the compounds of the invention, operating at a temperature of 37° C.
In the experiments of chemiotaxis and in those designed for measuring the cytosol levels of the Ca^2+ ion, human recombinant IL-8 (Pepro Tech.) was used as stimulant: the liophilized protein was dissolved in HBSS (Hank's balanced salts solution) at a concentration of 100 ng/mL and was used after dilution in HBSS down to concentrations of 10 ng/mL in the chemiotaxis experiments and at the concentration of 25-50 ng/mL in the evaluation of the modifications of [Ca^2+]. […]

IC50: 0.5 nM
SMILES: CC(=O)[C@H](C)c1ccc(CC(C)C)cc1 [R(−)-3-[(4′-isobutyl)phenyl]butan-2-one, (R)(−)-3-[(4′-isobutyl)phenyl]butan-2-one]
